# Values joined by “and” are separate entries in the source; they are usually repeats but may differ in a detail not shown here. Equal entries are not always repeated. Where two headings read alike, the source gives them in different places.
# Columns and labels:
# [1] = biological target: T1, bovine serum albumin (BSA) (Bos taurus, UniProt P02769); assay: BSA-directed DCL of building blocks 1-4; parameters: purchased Roche; key to NC of RPA: normalized change of relative peak area (RPA) vs blank DCL; conditions: blank vs BSA-DCL; BSA 57 µM, Secox 5% mol, 24 h
# T1 sequence (P02769 25-607): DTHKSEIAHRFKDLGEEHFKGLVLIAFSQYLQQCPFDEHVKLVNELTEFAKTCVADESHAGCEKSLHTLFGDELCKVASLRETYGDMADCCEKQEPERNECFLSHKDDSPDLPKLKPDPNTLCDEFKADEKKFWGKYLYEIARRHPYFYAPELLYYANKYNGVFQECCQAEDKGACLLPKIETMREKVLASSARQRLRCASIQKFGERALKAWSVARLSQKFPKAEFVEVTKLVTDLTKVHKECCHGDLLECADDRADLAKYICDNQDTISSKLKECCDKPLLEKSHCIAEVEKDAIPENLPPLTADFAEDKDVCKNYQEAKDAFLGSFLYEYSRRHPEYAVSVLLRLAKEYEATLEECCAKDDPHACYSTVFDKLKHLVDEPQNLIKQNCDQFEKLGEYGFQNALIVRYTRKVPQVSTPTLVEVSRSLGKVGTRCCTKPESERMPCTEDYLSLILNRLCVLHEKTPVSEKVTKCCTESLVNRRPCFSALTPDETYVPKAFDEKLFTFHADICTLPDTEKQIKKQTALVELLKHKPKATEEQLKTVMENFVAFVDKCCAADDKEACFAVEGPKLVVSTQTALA
# [2] = Spermine-templated DCL of building blocks 1-4; conditions: spermine DCL of 1-4
# Procedure: (§1) Building blocks 2 and 3 equipped with carboxylate moieties to establish interactions with the protonated amine groups of the spermine were allowed to equilibrate at pH 7.8 and 6 °C (Fig. 8a). As expected in our control experiment, the major component in the absence of spermine was the linear tetramer (2)2(3)2. After the addition of spermine, the linear tetramer “decomposed” in order to form mainly the cyclic tetramer of (2)4, and the (3)2 dimer (Fig. 8a). As it was reported, several studies determined that the spermine was threaded through the macrocycle fixing the configuration to a highly symmetric stereoisomer of (2)4[36]. […] The precise composition of the DCL (with and without spermine), was assessed by measuring the relative peak area (RPA). Indeed, the normalized change of RPA was used to quantify the spermine influence in the outcome (Supplementary Fig. 42)[46]. The same template (spermine) was tested in our reference DCL of four building blocks (1–4) in the absence and presence of Secox (Fig. 8b). […] Additionally, two different templates were tested to confirm the absence of conflict between selenocystine and the templating effect. Spermidine and NADPH were introduced in our 4 building blocks DCL (1–4) in the absence and presence of Secox, leading to the amplification of different species and getting the same results as the non-catalyzed DCLs (Supplementary Figs. 44, 45, Supplementary Tables 7–10, and Supplementary Methods).
# The mixture was stabilized in 96 h. […] The mixture was stabilized after 24 h. […] It was stabilized in 24 h. […] DCL was equilibrated in 96 h. DCLs were performed without stirring at 6 °C and analyzed by HPLC-MS.
# glucose oxidase (GOx) [3] = biological target: T2, glucose oxidase (GOx) (Aspergillus niger, UniProt P13006); assay: Glucose oxidase-directed DCL of building blocks 1-4; parameters: purchased Sigma Aldrich; unit not given here; conditions: blank vs GOx template DCL; GOx 57 μM, Secox 5% mol, 24 h
# T2 sequence (P13006 17-605): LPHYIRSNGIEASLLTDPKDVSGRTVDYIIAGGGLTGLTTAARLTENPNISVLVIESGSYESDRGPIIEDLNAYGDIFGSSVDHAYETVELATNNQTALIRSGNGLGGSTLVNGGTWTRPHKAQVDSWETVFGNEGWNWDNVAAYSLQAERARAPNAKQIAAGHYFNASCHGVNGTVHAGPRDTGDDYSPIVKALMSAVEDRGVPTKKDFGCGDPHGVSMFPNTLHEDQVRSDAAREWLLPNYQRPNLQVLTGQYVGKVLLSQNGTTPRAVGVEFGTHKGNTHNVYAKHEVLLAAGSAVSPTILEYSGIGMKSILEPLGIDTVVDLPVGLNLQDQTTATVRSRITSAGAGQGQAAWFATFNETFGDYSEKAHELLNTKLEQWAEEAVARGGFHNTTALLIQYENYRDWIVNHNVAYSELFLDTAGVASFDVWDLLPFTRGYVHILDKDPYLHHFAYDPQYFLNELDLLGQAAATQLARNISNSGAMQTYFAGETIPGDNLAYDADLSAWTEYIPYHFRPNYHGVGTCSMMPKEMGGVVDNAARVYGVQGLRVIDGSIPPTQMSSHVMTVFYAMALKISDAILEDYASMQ
# Procedure: The equilibration of the DCL was completed after 24 h (Fig. 9) and the oligomers were identified by HPLC-MS (Supplementary Figs. 4–20). The precise composition of the DCL (with and without GOx), was assessed by measuring the relative peak area (RPA). The normalized change of RPA was used to quantify the protein influence in the final DCL showing the amplification of the dimer of compound 4, that is (4)2 (Fig. 9b). Control experiments were set up to verify that the amplification of the dimer was not due to unspecific binding. Firstly the GOx was replaced by the bovine serum albumin (BSA). A stability study of BSA under the DCL conditions was performed using a fluorescence technique confirming the BSA stability in the DCL experiment (Supplementary Fig. 48)[50].
# The DCL was stabilized for 24 h at 6 °C. Then, GOx was removed by ultracentrifugation through an Amicon ultra-filter (100 KDa). HPLC analysis was performed.
# [4] = Spermidine-templated DCL of building blocks 1-4;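 also: Spermidine-templated dynamic combinatorial library, normalized change of RPA compared between Secox-free and Secox-containing libraries, DCC runs done in triplicate, values given as mean ± SD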
# [5] = NADPH-templated DCL of building blocks 1-4;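 also: values are means ± SD of DCC experiments run in triplicate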
# [6] = Spermine-templated DCL of building blocks 2 and 3; conditions: spermine DCL of 2 and 3
# Procedure: as §1
# The DCL was stabilized at 96 h. […] The mixture was stabilized after 24 h. […] The DCL was stabilized at 96 h. […] The DCL was analyzed in 96 h after equilibration. DCLs were performed without stirring at 6 °C and analyzed by HPLC-MS.
# [7] = cited from earlier work
# [8] = Equilibration of the thiol-disulfide DCL of building blocks 1-4 followed by HPLC-MS; conditions: 190 μM as fifth building block; Tris 20 mM pH 7.8, 6 °C; control 4 days
# Procedure: DMSO percentage is 2.5% v/v. […] DCLs were analyzed by HPLC-MS until equilibration without stirring at 6 °C.
# Control DCL. […] DMSO percentage is 2.5% v/v. Regarding Secox catalyzed DCL, different stocks of Secox were carried out in order to study the percentages of Secox. […] The DCLs were prepared at 6 °C without stirring and analyzed in several hours until the complete stabilization.
# [9] = biological target: T1, bovine serum albumin (BSA); assay: BSA tolerance to DMSO, Trp emission fluorescence
# glucose oxidase (GOx) [10] = biological target: T2, glucose oxidase (GOx)
# [11] = 10 % v/v DMSO, Supplementary Figure 48 b
# [12] = 20 % v/v DMSO, Supplementary Figure 48 b
# [13] = 60 % v/v DMSO, Supplementary Figure 48 b
smiles,measurement,setting,value
O=C(O)c1cc(SSc2ccccc2)c(C(=O)O)cc1SSc1ccccc1 [(2)(4)2],NC of RPA,[1],"1,30"
same,Normalized Change of RPA (NC),[2]; 0% Secox,"0,08"
same,Normalized Change of RPA (NC),[2]; 5% Secox,"0,08"
same,NC of RPA,glucose oxidase (GOx) [3],"0,19"
same,Normalized Change of RPA (NC),[4]; 0% Secox,"0,06"
same,Normalized Change of RPA (NC),[4]; 5% Secox,"0,04"
same,Normalized Change of RPA (NC),[5]; 0% Secox,"-0,16"
same,Normalized Change of RPA (NC),[5]; 5% Secox,"-0,18"
"O=C(O)c1cccc(SSc2cccc(C(=O)O)c2)c1 [(3)2, 3,3'-disulfanediyldibenzoic acid]",NC of RPA,[1],"-0,64"
same,Normalized Change of RPA (NC),[6]; Secox,0.1
same,Normalized Change of RPA (NC),[6]; no Secox,0.1
same,Normalized Change of RPA (NC),[2]; 0% Secox,"0,49"
same,Normalized Change of RPA (NC),[2]; 5% Secox,"0,49"
same,NC of RPA,glucose oxidase (GOx) [3],"-0,35"
same,Normalized Change of RPA (NC),[4]; 0% Secox,"0,51"
same,Normalized Change of RPA (NC),[4]; 5% Secox,"0,51"
same,Normalized Change of RPA (NC),[5]; 0% Secox,"0,56"
same,Normalized Change of RPA (NC),[5]; 5% Secox,"0,49"
O=C(O)c1cccc(SSc2cc(SSc3ccccc3)cc(C(=O)O)c2)c1 [(3)(1)(4)],NC of RPA,[1],"2,28"
same,Normalized Change of RPA (NC),[2]; 0% Secox,"-0,51"
same,Normalized Change of RPA (NC),[2]; 5% Secox,"-0,51"
same,NC of RPA,glucose oxidase (GOx) [3],"0,54"
same,Normalized Change of RPA (NC),[4]; 0% Secox,"-1,00"
same,Normalized Change of RPA (NC),[4]; 5% Secox,"-1,00"
same,Normalized Change of RPA (NC),[5]; 0% Secox,"-0,82"
same,Normalized Change of RPA (NC),[5]; 5% Secox,"-0,76"
"N[C@@H](CS)C(=O)O [Cys, cysteine]",pKa,[7]; Cys thiol group,8.22 and ~ 8.22
"N[C@@H](CSSC[C@H](N)C(=O)O)C(=O)O [Cysox, cystine]",DCL equilibration time,[8],3 days
C[S+](C)[O-] [DMSO],DMSO concentration tolerated by BSA,[9],up to 10%
same,DMSO concentration tolerated by GOx (no shift of Trp emission maximum),glucose oxidase (GOx) [10],up to 20%
same,Fluorescence Emission (Average Value),glucose oxidase (GOx) [10]; 1 % v/v DMSO,4921084
same,Wavelenght (nm) of Trp emission maximum,glucose oxidase (GOx) [10]; 1 % v/v DMSO,329 nm
same,Fluorescence Emission (Average Value),glucose oxidase (GOx) [10]; 2.5 % v/v DMSO,5438068
same,Wavelenght (nm) of Trp emission maximum,glucose oxidase (GOx) [10]; 2.5 % v/v DMSO,329 nm
same,Wavelenght (nm) of Trp emission maximum,"glucose oxidase (GOx) [10]; 2.5 % v/v DMSO, Supplementary Figure 48 b",338 nm
same,Fluorescence Emission (Average Value),glucose oxidase (GOx) [10]; 5 % v/v DMSO,4507601
same,Wavelenght (nm) of Trp emission maximum,glucose oxidase (GOx) [10]; 5 % v/v DMSO,329 nm
same,Wavelenght (nm) of Trp emission maximum,"glucose oxidase (GOx) [10]; 5 % v/v DMSO, Supplementary Figure 48 b",337 nm
same,Fluorescence Emission (Average Value),glucose oxidase (GOx) [10]; 7.5 % v/v DMSO,4900904
same,Wavelenght (nm) of Trp emission maximum,glucose oxidase (GOx) [10]; 7.5 % v/v DMSO,329 nm
same,Fluorescence Emission (Average Value),glucose oxidase (GOx) [10]; 10 % v/v DMSO,4964780
same,Wavelenght (nm) of Trp emission maximum,glucose oxidase (GOx) [10]; 10 % v/v DMSO,329 nm
same,Fluorescence Emission (at maximum),glucose oxidase (GOx) [10]; [11],7117020
same,Wavelenght (nm) of Trp emission maximum,glucose oxidase (GOx) [10]; [11],336 nm
same,Fluorescence Emission (Average Value),glucose oxidase (GOx) [10]; 20 % v/v DMSO,5321027
same,Wavelenght (nm) of Trp emission maximum,glucose oxidase (GOx) [10]; 20 % v/v DMSO,329 nm
same,Fluorescence Emission (at maximum),glucose oxidase (GOx) [10]; [12],7139475
same,Wavelenght (nm) of Trp emission maximum,glucose oxidase (GOx) [10]; [12],335 nm
same,Fluorescence Emission (Average Value),glucose oxidase (GOx) [10]; 40 % v/v DMSO,6356217
same,Wavelenght (nm) of Trp emission maximum,glucose oxidase (GOx) [10]; 40 % v/v DMSO,336 nm
same,Fluorescence Emission (Average Value),glucose oxidase (GOx) [10]; 50 % v/v DMSO,10423932
same,Wavelenght (nm) of Trp emission maximum,glucose oxidase (GOx) [10]; 50 % v/v DMSO,337 nm
same,Fluorescence Emission (Average Value),glucose oxidase (GOx) [10]; 60 % v/v DMSO,13490702
same,Wavelenght (nm) of Trp emission maximum,glucose oxidase (GOx) [10]; 60 % v/v DMSO,338 nm
same,Fluorescence Emission (at maximum),glucose oxidase (GOx) [10]; [13],8900408
same,Wavelenght (nm) of Trp emission maximum,glucose oxidase (GOx) [10]; [13],327 nm
same,Fluorescence Emission (Average Value),glucose oxidase (GOx) [10]; 70 % v/v DMSO,30698968
same,Wavelenght (nm) of Trp emission maximum,glucose oxidase (GOx) [10]; 70 % v/v DMSO,339 nm
same,Fluorescence Emission (Average Value),glucose oxidase (GOx) [10]; 80 % v/v DMSO,28715570
same,Wavelenght (nm) of Trp emission maximum,glucose oxidase (GOx) [10]; 80 % v/v DMSO,344 nm
same,Wavelenght (nm) of Trp emission maximum,glucose oxidase (GOx) [10]; 97 % v/v DMSO,349 nm
same,Fluorescence Emission (at maximum),"glucose oxidase (GOx) [10]; 97 % v/v DMSO, Supplementary Figure 48 b",24089455
same,time until total completion of homodimerization,20% (v/v),4 days
same,Kobs,"20% (v/v) DMSO, 0% Secox, 190 μM 3, Tris pH 7.8, 6 °C",0.068 ± 0.001 M⁻¹ s⁻¹
"N[C@@H](C[SeH])C(=O)O [Sec, selenocysteine]",pKa,[7]; Sec,5.43 and ~ 5.43

# From publication PMC7794297
